Laboratory results taken from patent US8101754B2, “Triazole compounds suitable for treating disorders that respond to modulation of the dopamine D3 receptor” (Abbott GmbH & Co. KG, priority 2004, dated 2012).
Where a name gives a salt, the structure may show the parent alone. Read-outs that look alike come from different tables or passages of the source. Each block holds one molecule with its values, some of them ahead of it.

What was measured:
[1] = target: T1, human dopamine D2L receptors (long isoform) (Homo sapiens, UniProt P14416); experiment: Dopamine D2L receptor binding ([125I] iodospiperone), basis of selectivity Ki(D2)/Ki(D3); conditions: for Selectivity [Ki(D2)/Ki(D3)]: D2L vs D3; for D2/D3: Table 7, compounds of formula IIa
T1 construct: expressed in transfected cells; membranes)
Experimental: The substance to be tested was either dissolved in methanol/Chremophor® (BASF-AG) or in dimethyl sulfoxide and then diluted with water to the desired concentration. […] Each assay mixture was run in triplicate. The incubation buffer contained 50 mM tris, 120 mM NaCl, 5 mM KCl, 2 mM CaCl2, 2 mM MgCl2 and 0.1% bovine serum albumin. The buffer was adjusted to pH 7.4 with HCl. Measurement and Analysis: After having been incubated at 25° C. for 60 minutes, the assay mixtures were filtered through a Wathman GF/B glass fiber filter under vacuum using a cell collecting device. The filters were transferred to scintillation viols using a filter transfer system. After 4 ml of Ultima Gold® (Packard) have been added, the samples were shaken for one hour and the radioactivity was then counted in a Beta-Counter (Packard, Tricarb 2000 or 2200CA). The cpm values were converted into dpm using a standard quench series and the program belonging to the instrument. The inhibition curves were analyzed by means of iterative nonlinear regression analysis using the Statistical Analysis System (SAS) which is similar to the “LIGAND” program described by Munson and Rodbard.

[2] = target: T2, human dopamine D3 receptors (Homo sapiens, UniProt P35462); experiment: Dopamine D3 receptor binding ([125I]-iodosulpride displacement)
T2 construct: expressed in transfected cells; membranes)
Experimental: The substance to be tested was either dissolved in methanol/Chremophor® (BASF-AG) or in dimethyl sulfoxide and then diluted with water to the desired concentration.
Each assay mixture was run in triplicate.
The incubation buffer contained 50 mM tris, 120 mM NaCl, 5 mM KCl, 2 mM CaCl2, 2 mM MgCl2 and 0.1% bovine serum albumin, 10 μM quinolone and 0.1% ascorbic acid (prepared fresh daily). The buffer was adjusted to pH 7.4 with HCl.
Measurement and Analysis:
After having been incubated at 25° C. for 60 minutes, the assay mixtures were filtered through a Wathman GF/B glass fiber filter under vacuum using a cell collecting device. The filters were transferred to scintillation viols using a filter transfer system. After 4 ml of Ultima Gold® (Packard) have been added, the samples were shaken for one hour and the radioactivity was then counted in a Beta-Counter (Packard, Tricarb 2000 or 2200CA). The cpm values were converted into dpm using a standard quench series and the program belonging to the instrument.
The inhibition curves were analyzed by means of iterative nonlinear regression analysis using the Statistical Analysis System (SAS) which is similar to the “LIGAND” program described by Munson and Rodbard.

[3] = Table 6, membranes of HEK-293 cells, read-out: ki D3
[4] = Table 5, membranes of HEK-293 cells, read-out: Ki D3
[5] = compounds II, read-out: Ki D3 values
[6] = Table 7, compounds of formula IIa, read-out: D3

T2 sequence (P35462 whole entry): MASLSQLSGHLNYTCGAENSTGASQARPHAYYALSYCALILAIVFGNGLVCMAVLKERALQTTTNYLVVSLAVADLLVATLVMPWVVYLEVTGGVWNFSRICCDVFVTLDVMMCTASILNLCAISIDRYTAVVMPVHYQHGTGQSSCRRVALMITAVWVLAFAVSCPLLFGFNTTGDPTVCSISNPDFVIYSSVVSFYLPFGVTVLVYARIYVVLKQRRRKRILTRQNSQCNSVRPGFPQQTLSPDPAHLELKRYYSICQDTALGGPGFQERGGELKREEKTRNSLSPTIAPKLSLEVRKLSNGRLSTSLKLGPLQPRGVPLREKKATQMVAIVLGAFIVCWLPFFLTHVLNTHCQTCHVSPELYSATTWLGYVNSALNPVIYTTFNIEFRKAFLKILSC
T1 sequence (P14416 whole entry, canonical isoform): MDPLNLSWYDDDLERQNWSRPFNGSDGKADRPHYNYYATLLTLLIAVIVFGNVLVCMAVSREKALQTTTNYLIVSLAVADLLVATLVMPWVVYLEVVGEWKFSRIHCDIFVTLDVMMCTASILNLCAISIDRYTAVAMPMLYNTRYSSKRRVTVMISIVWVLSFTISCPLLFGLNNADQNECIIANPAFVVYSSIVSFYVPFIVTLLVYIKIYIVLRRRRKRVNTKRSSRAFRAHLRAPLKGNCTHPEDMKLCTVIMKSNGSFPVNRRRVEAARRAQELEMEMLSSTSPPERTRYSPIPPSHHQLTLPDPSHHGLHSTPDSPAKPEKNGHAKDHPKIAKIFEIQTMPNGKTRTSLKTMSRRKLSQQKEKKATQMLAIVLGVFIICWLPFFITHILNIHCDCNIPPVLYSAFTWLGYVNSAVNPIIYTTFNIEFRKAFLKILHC

SMILES: Cn1cnnc1[S+]([O-])CCCN1CCN(c2cc(C(C)(C)C)nc(C(C)(C)C)n2)CC1 (centres unmarked) [Example 18, 2,4-Di-tert-butyl-6-{4-[3-(4-methyl-4H-[1,2,4]triazole-3-sulfinyl)-propyl]-piperazin-1-yl}-pyrimidine]
- Selectivity [Ki(D2)/Ki(D3)] ([1]; Table 6): 17
- Ki [2, 3]: 25 nM

SMILES: Cn1cnnc1S(=O)(=O)CCCN1CCN(c2cc(C3CCC3)nc(C(C)(C)C)n2)CC1 [Example 2, 2-tert-Butyl-4-cyclobutyl-6-{4-[3-(4-methyl-4H-[1,2,4]triazole-3-sulfonyl)-propyl]-piperazin-1-yl}-pyrimidine]
- Selectivity [Ki(D2)/Ki(D3)] ([1]; Table 5): 14
- Ki [2, 4]: 52 nM

SMILES: CCCc1cc(N2CCN(CCC[S+]([O-])c3nnc(CC)n3C)CC2)nc(C(C)(C)C)n1.Cl (centres unmarked) [Example 5, 2-tert-Butyl-4-{4-[3-(5-ethyl-4-methyl-4H-[1,2,4]triazole-3-sulfinyl)-propyl]-piperazin-1-yl}-6-propyl-pyrimidine hydrochloride]
- Selectivity [Ki(D2)/Ki(D3)] ([1]; Table 5): 37
- Ki [2, 4]: 38 nM

SMILES: CC(C)c1cc(N2CCN(CCCS(=O)(=O)c3nncn3C)CC2)nc(C(C)(C)C)n1 [Example 23, 2-tert-Butyl-4-{4-[3-(4-methyl-1H-[1,2,4]triazole-3-sulfonyl)-propyl]-piperazin-1-yl}-6-isopropyl-pyrimidine]
- Selectivity [Ki(D2)/Ki(D3)] ([1]; Table 6): 49
- Ki [2, 3]: 59.8 nM

SMILES: CC(C)(C)c1nc(N2CCN(CCCS(=O)(=O)c3nc[nH]n3)CC2)cc(C2(C)CC2)n1 [Example 31, 2-tert-butyl-6-{4-[3-(1H-[1,2,4]triazole-3-sulfonyl)-propyl]-piperazin-1-yl}-6-(1-methyl)cyclopropyl-pyrimidine]
- Selectivity [Ki(D2)/Ki(D3)] ([1]; Table 6): 37
- Ki [2, 3]: 22.6 nM

SMILES: CCCc1cc(N2CCN(CCCS(=O)(=O)c3nnc(CC)n3C)CC2)nc(C(C)(C)C)n1 [Example 12, 2-tert-Butyl-4-{4-[3-(5-ethyl-4-methyl-4H-[1,2,4]triazole-3-sulfonyl)-propyl]-piperazin-1-yl}-6-propyl-pyrimidine]
- Selectivity [Ki(D2)/Ki(D3)] ([1]; Table 5): 55
- Ki [2, 4]: 12.8 nM

SMILES: Cn1cnnc1S(=O)(=O)CCCN1CCN(c2cc(C(C)(C)C)nc(C(C)(C)C)n2)CC1 [Example 17, 2,4-Di-tert-butyl-6-{4-[3-(4-methyl-4H-[1,2,4]triazole-3-sulfonyl)-propyl]-piperazin-1-yl}-pyrimidine]
- Selectivity [Ki(D2)/Ki(D3)] ([1]; Table 6): 53
- Ki [2, 3]: 5.95 nM

SMILES: Cl.Cn1cnc(S(=O)(=O)CCCN2CCN(c3cc(C(F)(F)F)nc(C(C)(C)C)n3)CC2)n1 [Example 19, 2-tert-Butyl-4-{4-[3-(1-methyl-1H-[1,2,4]triazole-3-sulfonyl)-propyl]-piperazin-1-yl}-6-trifluoromethyl-pyrimidine hydrochloride]
- Selectivity [Ki(D2)/Ki(D3)] ([1]; Table 6): 17
- Ki [2, 3]: 32 nM

SMILES: CC(C)(C)c1cc(N2CCN(CCCS(=O)(=O)c3nc[nH]n3)CC2)nc(C(C)(C)C)n1 [Example 22, 2,4-Di-tert-butyl-6-{4-[3-(1H-[1,2,4]triazole-3-sulfonyl)-propyl]-piperazin-1-yl}-pyrimidine]
- Selectivity [Ki(D2)/Ki(D3)] ([1]; Table 6): 19
- Ki [2, 3]: 47.4 nM

SMILES: Cn1cnnc1[S+]([O-])CCCN1CCN(c2cc(C3CCC3)nc(C(C)(C)C)n2)CC1 (centres unmarked) [Example 3, 2-tert-Butyl-4-cyclobutyl-6-{4-[3-(4-methyl-4H-[1,2,4]triazole-3-sulfinyl)-propyl]-piperazin-1-yl}-pyrimidine]
- Selectivity [Ki(D2)/Ki(D3)] ([1]; Table 5): 44
- Ki [2, 4]: 12 nM

SMILES: Cn1cnc(S(=O)(=O)CCCN2CCN(c3cc(C(C)(C)C)nc(C(C)(C)C)n3)CC2)n1 [Example 27, 2,6-di-tert-Butyl-4-{4-[3-(1-methyl-1H-[1,2,4]triazole-3-sulfonyl)-propyl]-piperazin-1-yl}-pyrimidine]
- Selectivity [Ki(D2)/Ki(D3)] ([1]; Table 6): 24
- Ki [2, 3]: 9.7 nM

SMILES: Cn1c(-c2ccc(F)cc2)nnc1[S+]([O-])CCCN1CCN(c2cc(C(F)(F)F)nc(C(C)(C)C)n2)CC1 (centres unmarked) [Example 15, 2-tert-Butyl-4-(4-{3-[5-(4-fluoro-phenyl)-4-methyl-4H[1,2,4]triazole-3-sulfinyl]-propyl}-piperazin-1-yl)-6-trifluoromethyl-pyrimidine]
- Selectivity [Ki(D2)/Ki(D3)] ([1]; Table 5): 100
- Ki [2, 4]: 12.6 nM

SMILES: Cc1nnc(S(=O)(=O)CCCN2CCN(c3cc(C4(C)CC4)nc(C(C)(C)C)n3)CC2)n1C [Example 10, 2-tert-Butyl-4-{4-[3-(4,5-dimethyl-4H-[1,2,4]triazole-3-sulfonyl)-propyl]-piperazin-1-yl}-6-(1-methyl-cyclopropyl)-pyrimidine]
- Selectivity [Ki(D2)/Ki(D3)] ([1]; Table 5): 37
- Ki [2, 4]: 7.8 nM

Other lines, results leading:

- Ki [2, 5]: < 5 nM
SMILES: Cn1c(SCCCN2CCN(c3cc(C(F)(F)F)nc(C(C)(C)C)n3)CC2)nnc1C1CCCC1 [c.3, 2-tert-Butyl-4-{4-[3-(4-methyl-5-cyclopentyl-4H-[1,2,4]triazol-3-ylsulfanyl)-propyl]-piperazin-1-yl}-6-trifluoromethyl-pyrimidine trifluoroacetate]

- Ki [2, 5]: < 5 nM
SMILES: CCc1cc(N2CCN(CCCSc3nnc(C(F)(F)F)n3C)CC2)nc(C(C)(C)C)n1 [c.28, 2-tert-Butyl-4-{4-[3-(4-methyl-5-trifluoromethyl-4H-[1,2,4]triazol-3-ylsulfanyl)-propyl]-piperazin-1-yl}-6-ethyl-pyrimidine hydrochloride]

- Ki [2, 5]: < 5 nM
SMILES: CCc1nnc(SCCCN2CCN(c3cc(C(F)F)nc(C(C)(C)C)n3)CC2)n1C [c.29, 2-tert-Butyl-4-{4-[3-(4-methyl-5-ethyl-4H-[1,2,4]triazol-3-ylsulfanyl)-propyl]-piperazin-1-yl}-6-difluoromethyl-pyrimidine hydrochloride]

- D2/D3 [1]: 134
- Ki [2, 6]: 2.9 nM
- Ki [2, 5]: < 5 nM
SMILES: CC(=O)O.Cn1c(SCCCN2CCN(c3cc(C(F)(F)F)nc(C(C)(C)C)n3)CC2)nnc1C1CCC1 [c.18, 2-tert-Butyl-4-{4-[3-(4-methyl-5-cyclobutyl-4H-[1,2,4]triazol-3-ylsulfanyl)-propyl]-piperazin-1-yl}-6-trifluoromethyl-pyrimidine acetate]

- D2/D3 [1]: 237
- Ki [2, 6]: 0.65 nM
- Ki [2, 5]: < 5 nM
SMILES: COCc1nnc(SCCCN2CCN(c3cc(C(F)(F)F)nc(C(C)(C)C)n3)CC2)n1C.Cl [c.16, 2-tert-Butyl-4-{4-[3-(4-methyl-5-methoxymethyl-4H-[1,2,4]triazol-3-ylsulfanyl)-propyl]-piperazin-1-yl}-6-trifluoromethyl-pyrimidine hydrochloride]

- Ki [2, 5]: < 5 nM
SMILES: Cn1c(SCCCN2CCN(c3cc(C(F)F)nc(C(C)(C)C)n3)CC2)nnc1C1CCC1 [c.20, 2-tert-Butyl-4-{4-[3-(4-methyl-5-cyclobutyl-4H-[1,2,4]triazol-3-ylsulfanyl)-propyl]-piperazin-1-yl}-6-difluoromethyl-pyrimidine hydrochloride]

- D2/D3 [1]: 115
- Ki [2, 6]: 1.2 nM
- Ki [2, 5]: < 5 nM
SMILES: Cl.Cn1c(SCCCN2CCN(c3cc(C(F)F)nc(C(C)(C)C)n3)CC2)nnc1C(C)(C)C [c.7, 2-tert-Butyl-4-{4-[3-(4-methyl-5-tert-butyl-4H-[1,2,4]triazol-3-ylsulfanyl)-propyl]-piperazin-1-yl}-6-difluoromethyl-pyrimidine hydrochloride]

- D2/D3 [1]: 135
- Ki [2, 6]: 1.5 nM
SMILES: Cc1nnc(SCCCN2CCN(c3cc(C(F)(F)F)nc(C(C)(C)C)n3)CC2)n1C.Cl [c.14, 2-tert-Butyl-4-{4-[3-(4-methyl-5-methyl-4H-[1,2,4]triazol-3-ylsulfanyl)-propyl]-piperazin-1-yl}-6-trifluoromethyl-pyrimidine hydrochloride]

- Ki [2, 5]: < 5 nM
SMILES: Cn1c(SCCCN2CCN(c3cc(C(F)(F)F)nc(C(C)(C)C)n3)CC2)nnc1C(C)(C)C [c.27, 2-tert-Butyl-4-{4-[3-(4-methyl-5-tert-butyl-4H-[1,2,4]triazol-3-ylsulfanyl)-propyl]-piperazin-1-yl}-6-trifluoromethyl-pyrimidine]

- Ki [2, 5]: < 5 nM
SMILES: Cn1c(SCCCN2CCN(c3cc(C(F)F)nc(C(C)(C)C)n3)CC2)nnc1C1CC1 [c.21, 2-tert-Butyl-4-{4-[3-(4-methyl-5-cyclopropyl-4H-[1,2,4]triazol-3-ylsulfanyl)-propyl]-piperazin-1-yl}-6-difluoromethyl-pyrimidine hydrochloride]

- Ki [2, 5]: < 5 nM
SMILES: Cn1c(SCCCN2CCN(c3cc(C(F)F)nc(C(C)(C)C)n3)CC2)nnc1C(F)(F)F [c.6, 2-tert-Butyl-4-{4-[3-(4-methyl-5-trifluoromethyl-4H-[1,2,4]triazol-3-ylsulfanyl)-propyl]-piperazin-1-yl}-6-difluoromethyl-pyrimidine hydrochloride]
